Key:
[1] = cited from earlier work
[2] = Solubility in purified water; conditions: vortex 5 minutes
From the text: Respective salt and base forms of betamethasone and dexamethasone were weighed and transferred in the glass test tube.

[3] = test system: neurological symptoms in ataxia telangiectasia; conditions: 0.1 mg/kg/day, cited from earlier work
[4] = test system: ataxia symptoms in children with AT; conditions: cited from earlier work
[5] = comparison among glucocorticoids; cited from earlier work

## C[C@H]1CC2C3CCC4=CC(=O)C=C[C@]4(C)[C@@]3(F)[C@@H](O)C[C@]2(C)[C@@]1(O)C(=O)COP(=O)(O)O (stereo partly drawn) [Betamethasone disodium phosphate, 9-Fluoro-11β,17,21-trihydroxy-16β-methylpregna-1,4-diene-3,20-dione 21-(disodium phosphate)]
[1]
  solubility (in words): soluble
[1]; strongly influenced by storage temperature
  stability in aqueous solution: very low
[2]; Concentration 0.25 mg/0.14 ml
  Solubility in purified water: Soluble
[2]; Concentration 0.50 mg/0.14 ml
  Solubility in purified water: Soluble
[2]; Concentration 1.00 mg/0.14 ml
  Solubility in purified water: Soluble
[2]; Concentration 1.50 mg/0.14 ml
  Solubility in purified water: Soluble
[2]; Concentration 2.00 mg/0.14 ml
  Solubility in purified water: Soluble
[2]; Concentration 4.00 mg/0.14 ml
  Solubility in purified water: Soluble
[2]; Concentration 8.00 mg/0.14 ml
  Solubility in purified water: Soluble

## C[C@@H]1C[C@H]2[C@@H]3CCC4=CC(=O)C=C[C@]4(C)[C@@]3(F)[C@@H](O)C[C@]2(C)[C@@]1(O)C(=O)COP(=O)([O-])[O-].[Na+].[Na+] [Dexamethasone disodium phosphate]
[2]; Concentration 1.00 mg/0.14 ml
  Solubility in purified water: Soluble
[2]; Concentration 2.00 mg/0.14 ml
  Solubility in purified water: Soluble
[2]; Concentration 4.00 mg/0.14 ml
  Solubility in purified water: Soluble
[2]; Concentration 8.00 mg/0.14 ml
  Solubility in purified water: Soluble

## C[C@H]1C[C@H]2[C@@H]3CCC4=CC(=O)C=C[C@]4(C)[C@@]3(F)[C@@H](O)C[C@]2(C)[C@@]1(O)C(=O)CO [betamethasone]
[3]; 4 weeks
  change in phenotypic appearance (adverse effect): moon face
[3]; from 15.5 kg
  body weight at 4 weeks: 19.0 kg
[4]; 13 children
  patients with moon face: 8 patients
  patients with small increases in body weight: 12 patients
[4]; in vivo
  adverse events in the trial: minimal
[2]; Concentration 0.25 mg/0.14 ml
  Solubility in purified water: Not Soluble

## C[C@@H]1C[C@H]2[C@@H]3CCC4=CC(=O)C=C[C@]4(C)[C@@]3(F)[C@@H](O)C[C@]2(C)[C@@]1(O)C(=O)CO [dexamethasone]
[2]; Concentration 0.25 mg/0.14 ml
  Solubility in purified water: Not Soluble

## C[C@]12CCC(=O)C=C1CC[C@@H]1[C@@H]2[C@@H](O)C[C@@]2(C)[C@H]1CC[C@]2(O)C(=O)CO [hydrocortisone]
[5]
  equivalent mg dosage: 20 mg

## C[C@]12C=CC(=O)C=C1CC[C@@H]1[C@@H]2[C@@H](O)C[C@@]2(C)[C@H]1CC[C@]2(O)C(=O)CO [prednisolone]
[5]
  equivalent mg dosage: 5 mg

## C[C@]12C=CC(=O)C=C1CC[C@H]1[C@@H]3C[C@@H](O)[C@](O)(C(=O)CO)[C@@]3(C)C[C@H](O)[C@@]12F [triamcinolone]
[5]
  equivalent mg dosage: 4 mg

From patent US11291672B2, “Betamethasone oral spray formulation and method of use to treat ataxia” (GRACE THERAPEUTICS LLC, priority 2016, dated 2022)
